Results: the supplement of paper PMC10307832

How the values were obtained:
Assay in all cases: relative viability (nuclei count vs DMSO), 5 days (fraction); higher = more cells survive
VE-821 = compound: CS(=O)(=O)c1ccc(-c2cnc(N)c(C(=O)Nc3ccccc3)n2)cc1 [VE-821]
Outline: (§1)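 Lung cancer cell lines were seeded into 1536-well plates, kept overnight at 37 °C and pinned with five library-drug doses (not always all listed) spaced by √10. After 5 days, nuclei were Hoechst-stained, imaged at 4× and counted with MetaXpress. Viability is treated-well nuclei over vehicle-well nuclei, taken as a median across plates. Plates needed control CV below 25% and at least one doubling.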

Vismodegib = compound: CS(=O)(=O)c1ccc(C(=O)Nc2ccc(Cl)c(-c3ccccn3)c2)c(Cl)c1 [Vismodegib]
Outline: as §1

Ruxolitinib = compound: N#CC[C@H](C1CCCC1)n1cc(-c2ncnc3[nH]ccc23)cn1 [Ruxolitinib]
Outline: as §1

Vismodegib + Dasatinib = compound: CS(=O)(=O)c1ccc(C(=O)Nc2ccc(Cl)c(-c3ccccn3)c2)c(Cl)c1 [Vismodegib] + Cc1nc(Nc2ncc(C(=O)Nc3c(C)cccc3Cl)s2)cc(N2CCN(CCO)CC2)n1 [Dasatinib] (partner 0.075 µM)
Outline: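 Lung cancer cell lines were pin-tool dosed in 1536-well plates on the day after seeding, with either a lone drug or a fixed anchor-drug dose plus five library-drug doses (not always all listed) in √10 steps. Nuclei were counted on 4× images after 5 days. Relative viability is the ratio of treated-well to vehicle-well nuclei counts, with each value a median of duplicate plates.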

Cell Line	relative viability (VE-821; 0.08 µM)	relative viability (VE-821; 0.253 µM)	relative viability (VE-821; 0.8 µM)	relative viability (VE-821; 2.53 µM)	relative viability (VE-821; 8 µM)	relative viability (Vismodegib; 0.08 µM)	relative viability (Vismodegib; 0.253 µM)	relative viability (Vismodegib; 0.8 µM)	relative viability (Vismodegib; 2.53 µM)	relative viability (Vismodegib; 8 µM)	relative viability (Ruxolitinib; 0.08 µM)	relative viability (Ruxolitinib; 0.253 µM)	relative viability (Ruxolitinib; 0.8 µM)	relative viability (Ruxolitinib; 2.53 µM)	relative viability (Ruxolitinib; 8 µM)	relative viability (Vismodegib + Dasatinib; first compound 0.08 µM)	relative viability (Vismodegib + Dasatinib; first compound 0.253 µM)	relative viability (Vismodegib + Dasatinib; first compound 0.8 µM)	relative viability (Vismodegib + Dasatinib; first compound 2.53 µM)	relative viability (Vismodegib + Dasatinib; first compound 8 µM)
NCI-H2009	1.03	0.961	1	1.06	0.863	0.982	0.977	0.976	0.964	0.992	1.03	1.01	1.04	0.842	0.657	0.286	0.261	0.234	0.3	0.344
NCI-H2023	1.1	0.874	0.672	0.494	0.172	0.925	0.892	0.95	1.06	0.98	1.03	0.835	1.18	0.9	0.988	0.564	0.534	0.628	0.455	0.558
NCI-H2085	1.03	0.973	0.843	1.14	0.946	0.977	0.995	0.994	0.997	0.937	1.03	1.01	1.09	0.901	0.876	0.26	0.244	0.22	0.217	0.213
NCI-H2087	1.16	0.871	0.958	1.32	1.05	0.946	0.969	0.941	1.09	0.906	1.04	0.957	1.12	0.935	0.941	0.98	0.769	0.812	0.94	0.69
NCI-H2126	1.02	0.924	0.966	0.96	0.729	0.994	0.962	0.949	0.968	0.927	1	1.02	1.09	1.12	0.986	0.666	0.57	0.554	0.544	0.473
NCI-H2170	0.972	0.932	1.01	0.966	0.642	1.03	0.959	1.01	0.955	0.993	1.05	0.975	1	0.924	0.841	0.542	0.623	0.627	0.62	0.639
NCI-H2228	0.938	1.03	0.806	1.27	0.728	1.07	1.13	1.04	0.889	0.89	0.764	0.964	1.3	0.809	0.737	0.593	0.529	0.46	0.452	0.454
NCI-H2342	1	0.957	0.939	0.998	0.807	0.882	1.07	0.984	0.742	0.931	0.981	0.827	1.09	1.02	0.964	0.313	0.316	0.298	0.344	0.322
NCI-H2347	1.1	0.968	1.01	1.22	1.14	0.908	0.995	0.949	0.968	1.04	0.949	0.984	1.11	1.01	0.942	0.281	0.35	0.331	0.272	0.293
NCI-H2405	1.06	0.968	0.968	1.09	0.993	0.96	1.06	0.927	0.991	1.03	0.715	0.974	0.999	0.938	0.52	0.214	0.228	0.212	0.235	0.239
NCI-H3122	1.02	1.01	0.982	1.01	0.933	0.962	1.01	0.904	0.973	0.92	0.986	1.03	1.01	0.868	0.915	0.871	0.823	0.811	0.862	0.867
PC-3 [JPC-3]	1.03	1.07	1.07	1.06	0.971	0.977	0.999	0.986	1.02	0.986	0.818	0.941	1.02	1.03	0.908	0.947	0.985	1.03	0.974	0.924
PC-14	1.06	0.932	0.995	0.969	0.686	0.958	0.959	0.988	0.915	0.952		1.07	1.01	0.865	0.8	0.25	0.235	0.27	0.225	0.244
RERF-LC-KJ	0.986	0.916	0.878	0.923	0.786	1.03	0.967	1.03	0.973	1.04	0.969	0.933	1.06	1.01	0.965	0.779	0.676	0.75	0.758	0.768
